# Measured values taken from article PMC6440464 (PeerJ, 2019).
# Several values for one entry are separate records, joined by “and”; a condition that tells them apart may be missing. Identical values can stand only once. Like-named read-outs stand apart in the source and are kept apart here.
# Assay: Pharmacokinetics study after separate oral administration in rats (HPLC-MS of plasma)
# Type: in vivo, Sprague-Dawley rats
# Conditions: for half-life: read-out: t1/2z
# Method: A total of 15 SPF Sprague-Dawley rats (SD, male, 190–210 g) were provided by Sino-British Sippr/BK Lab Animal Company Ltd. (Shanghai, China). The rats were kept in standard conditions (22–26 °C; 40–60% relative humidity; 12 h light/dark cycle). Throughout the rearing period, the animals had access to food and water ad libitum. Animal experiments were conducted in accordance with the standard ethical guidelines of the Laboratory Animal Management Committee of Jiangsu Province (SYXK (SU) 2016-0011).
# Following 1 week of adaptation, the rats were fasted for about 12 h before dosing, with free access to water. […] After administration of the first dose, blood samples were taken from the retro-orbital vein at 0, 5, 15, 30, 60, 90, 120, 180, 240, 360, 480, and 1,440 min and collected in heparinized tubes. The samples were centrifuged at 3,500 rpm for 10 min at 4 °C and the plasma was stored at −80 °C until analysis.
# An Agilent 1,200 series HPLC system (Agilent Technologies, Waldbronn, Germany) equipped with a quaternary pump on-line degasser, auto-sampler and column oven, and an SL G1946D quadruple mass spectrometer (Agilent Technologies, Santa Clara, CA, USA) equipped with an electrospray ionization (ESI) source, were used for separation and detection. Data were acquired and analyzed using Agilent ChemStation Software Version A.01.00 (Agilent Technologies, Santa Clara, CA, USA).
# The separation was carried out with an Amethyst C18-H column (150 × 4.6 mm, 5 μm, Sepax Technologies, Newark, DE, USA) with a guard column SB-C18 (10 × 4.6 mm, 5 μm, Phenomenex Technologies, Torrance, USA) at a constant temperature of 25 °C.
# The mass spectra were acquired using ESI interfaced to a single quadrupole mass spectrometer. The ionization conditions were as follows: drying gas (N2) flow rate of 11 L/min, drying gas temperature of 350 °C, nebulizing gas (N2) pressure of 35 psi, capillary voltage of 3,500 V, quad temperature of 100 °C, and fragment voltage of 110 V. A series of m/z were monitored using a timed program according to the retention times and characteristic ions for the corresponding HPLC-MS peak obtained by scanning from m/z 100–1,000 in the standard sample.
# Briefly, an aliquot of plasma sample (100 μL) was spiked with 5% formic acid (10 μL) in centrifuge tube. Subsequently, hydrochloric acid (2 mol/L, 10 μL) and IS solution (960.00 ng/mL, 20 μL) were added. Then ethyl acetate/n-butyl alcohol (1:1 v/v; 1,000 μL) was used to extract the components. The samples were then homogenized by vortex mixing and centrifuged for 10 min at 14,000 rpm. After centrifugation, 800 μL of supernatant was transferred to another centrifuge tube and the sample was evaporated to dryness. The residues were dissolved in 100 μL of methanol and centrifuged for 10 min at 12,000 rpm. 50 μL of the supernatant was transferred to the vial and an aliquot of 5 μL was injected into the HPLC-MS system for analysis.
# DAS 2.0 (Chinese Pharmacological Association, Shanghai, China) was used to calculate the pharmacokinetic parameters using the non-compartment model, including the area under curve (AUC), mean residence time (MRT), half-life ( t1/2z), clearance rate (CL), maximum plasma concentration (Cmax), and time (Tmax). All results are expressed as mean ± standard deviation (SD). One way analysis of variance followed by […] was used for comparison of different groups using Graph pad prism 5 software. A p-value of <0.05 was considered statistically significant.
# [1] = IQ group (oral IQ 50 mg/kg), rat plasma, labelled substance = analyte, individual rats No1-No5
structure (smiles),measurement,setting,value
"O=c1c(O[C@@H]2O[C@H](CO)[C@@H](O)[C@H](O)[C@H]2O)c(-c2ccc(O)c(O)c2)oc2cc(O)cc(O)c12 [IQ, Isoquercitrin]",Plasma concentrations,"IQ group (oral IQ 50 mg/kg), 5 min, individual rats NO. 1-5",0.0934 µg/mL and 0.0774 µg/mL and 0.0493 µg/mL and 0.0335 µg/mL and 0.1108 µg/mL
same,Plasma concentrations,"IQ group (oral IQ 50 mg/kg), 15 min, individual rats NO. 1-5",0.3981 µg/mL and 0.2105 µg/mL and 0.1113 µg/mL and 0.0464 µg/mL and 0.3803 µg/mL
same,Plasma concentrations,"IQ group (oral IQ 50 mg/kg), 30 min, individual rats NO. 1-5",0.3658 µg/mL and 0.4136 µg/mL and 0.1507 µg/mL and 0.3866 µg/mL and 0.3886 µg/mL
same,Plasma concentrations,"IQ group (oral IQ 50 mg/kg), 60 min, individual rats NO. 1-5",0.1335 µg/mL and 0.1563 µg/mL and 0.1140 µg/mL and 0.0299 µg/mL and 0.2027 µg/mL
same,Plasma concentrations,"IQ group (oral IQ 50 mg/kg), 90 min, individual rats NO. 1-5",0.0372 µg/mL and 0.1114 µg/mL and 0.0310 µg/mL and 0.0260 µg/mL and 0.1543 µg/mL
same,Plasma concentrations,"IQ group (oral IQ 50 mg/kg), 120 min, individual rats NO. 1-5",0.0000 μg/mL (3×) and 0.0534 μg/mL and 0.0884 μg/mL
same,Plasma concentrations,"IQ group (oral IQ 50 mg/kg), 180 min, individual rats NO. 1-5",0.0000 µg/mL
same,Plasma concentrations,"IQ group (oral IQ 50 mg/kg), 240 min, individual rats NO. 1-5",0.0000 µg/mL
same,Plasma concentrations,"IQ group (oral IQ 50 mg/kg), 360 min, individual rats NO. 1-5",0.0000 µg/mL
same,Plasma concentrations,"IQ group (oral IQ 50 mg/kg), 480 min, individual rats NO. 1-5",0.0000 µg/mL
same,Plasma concentrations,"IQ group (oral IQ 50 mg/kg), 1440 min, individual rats NO. 1-5",0.0000 µg/mL
same,AUC(0-t),[1],307.8 ng·h/mL and 355.8 ng·h/mL and 150.6 ng·h/mL and 180.27 ng·h/mL and 439.42 ng·h/mL
same,CLz/F,[1],2.565 L/min/kg and 2.104 L/min/kg and 4.792 L/min/kg and 3.572 L/min/kg and 1.528 L/min/kg
same,Cmax,[1],398.1 ng/mL and 413.6 ng/mL and 150.7 ng/mL and 386.6 ng/mL and 388.6 ng/mL
same,MRT(0-t),[1],46.827 min and 41.112 min and 33.266 min and 48.488 min
same,Tmax,[1],30 min
same,t1/2z,[1],18.181 min and 30.631 min and 26.313 min and 87.922 min and 49.884 min
same,Detection in rat plasma,IQ group: oral IQ 50 mg/kg,could be detected in rat plasma
same,Time until which the AUC could be accessed,IQ group: oral IQ 50 mg/kg,90 to 120 min
same,CL,"IQ group: oral IQ 50 mg/kg, rat plasma, mean ± SD, n = 5",2.91 ± 1.29 L/min/kg
same,concentration at 180 min,"male, Sprague-Dawley, rat, plasma, oral, 50 mg/kg, IQ group (oral IQ 50 mg/kg), 180 min, individual rats NO. 1-5, read-out: Plasma concentrations",0 ng/mL
same,concentration at 240 min,"male, Sprague-Dawley, rat, plasma, oral, 50 mg/kg, IQ group (oral IQ 50 mg/kg), 240 min, individual rats NO. 1-5, read-out: Plasma concentrations",0 ng/mL
same,concentration at 360 min,"male, Sprague-Dawley, rat, plasma, oral, 50 mg/kg, IQ group (oral IQ 50 mg/kg), 360 min, individual rats NO. 1-5, read-out: Plasma concentrations",0 ng/mL
same,concentration at 480 min,"male, Sprague-Dawley, rat, plasma, oral, 50 mg/kg, IQ group (oral IQ 50 mg/kg), 480 min, individual rats NO. 1-5, read-out: Plasma concentrations",0 ng/mL
same,concentration at 1440 min,"male, Sprague-Dawley, rat, plasma, oral, 50 mg/kg, IQ group (oral IQ 50 mg/kg), 1440 min, individual rats NO. 1-5, read-out: Plasma concentrations",0 ng/mL
same,MRT last,"male, Sprague-Dawley, rat, plasma, po, 50 mg/kg, IQ group (oral IQ 50 mg/kg), rat plasma, labelled substance = analyte, individual rats No1-No5, read-out: MRT(0-t) (converted)",33.3 min
same,Tmax,"male, Sprague-Dawley, rat, plasma, po, 50 mg/kg, IQ group (oral IQ 50 mg/kg), rat plasma, labelled substance = analyte, individual rats No1-No5, read-out: Tmax (converted)",15 min
same,AUC(0-t),"male, Sprague-Dawley, rat, plasma, po, 50 mg/kg, IQ group (oral IQ 50 mg/kg), rat plasma, labelled substance = analyte, mean of 5 rats, read-out: AUC(0-t) (converted)",287 ng·h/mL
same,CL/F,"male, Sprague-Dawley, rat, plasma, po, 50 mg/kg, IQ group (oral IQ 50 mg/kg), rat plasma, labelled substance = analyte, mean of 5 rats, read-out: CLz/F",2910 mL/min/kg
same,Cmax,"male, Sprague-Dawley, rat, plasma, po, 50 mg/kg, IQ group (oral IQ 50 mg/kg), rat plasma, labelled substance = analyte, mean of 5 rats, read-out: Cmax",348 ng/mL
same,MRT last,"male, Sprague-Dawley, rat, plasma, po, 50 mg/kg, IQ group (oral IQ 50 mg/kg), rat plasma, labelled substance = analyte, mean of 5 rats, read-out: MRT(0-t) (converted)",40.6 min
same,Tmax,"male, Sprague-Dawley, rat, plasma, po, 50 mg/kg, IQ group (oral IQ 50 mg/kg), rat plasma, labelled substance = analyte, mean of 5 rats, read-out: Tmax (converted)",27 min
same,half-life,"male, Sprague-Dawley, rat, plasma, po, 50 mg/kg, IQ group (oral IQ 50 mg/kg), rat plasma, labelled substance = analyte, mean of 5 rats",42.6 min
same,AUC(0-t),"male, Sprague-Dawley, rat, plasma, po, 50 mg/kg, IQ group: oral IQ 50 mg/kg, rat plasma, mean ± SD, n = 5, read-out: AUC0−t (converted)",287 ng·h/mL
same,Cmax,"male, Sprague-Dawley, rat, plasma, po, 50 mg/kg, IQ group: oral IQ 50 mg/kg, rat plasma, mean ± SD, n = 5, read-out: Cmax",350 ± 110 ng/mL
same,MRT last,"male, Sprague-Dawley, rat, plasma, po, 50 mg/kg, IQ group: oral IQ 50 mg/kg, rat plasma, mean ± SD, n = 5, read-out: MRT0−t (converted)",40.6 min
same,Tmax,"male, Sprague-Dawley, rat, plasma, po, 50 mg/kg, IQ group: oral IQ 50 mg/kg, rat plasma, mean ± SD, n = 5, read-out: Tmax (converted)",27 min
same,half-life,"male, Sprague-Dawley, rat, plasma, po, 50 mg/kg, IQ group: oral IQ 50 mg/kg, rat plasma, mean ± SD, n = 5",42.6 ± 27.9 min
